Source: article PMC4866688, “Trypanosoma brucei DHFR-TS Revisited: Characterisation of a Bifunctional and Highly Unstable Recombinant Dihydrofolate Reductase-Thymidylate Synthase” (PLoS Neglected Tropical Diseases, 2016)
Several values for one entry are separate records, joined by “and”; a condition that tells them apart may be missing. Equal values may be shown once. Read-outs that look alike come from different tables or passages of the source.

Experiments:
[1] = tested on: T. brucei bloodstream-form 'single marker' S427; experiment: Growth inhibition of wild type T. brucei, 72 h, resazurin-based assay; format: cell-based; conditions: Trypanosoma brucei
Description: Wild type (WT) T. brucei bloodstream-form ‘single marker’ S427 were cultured in HMI9T medium supplemented with 2.5 μg ml^-1 G418 to maintain expression of T7 RNA polymerase and the tetracycline repressor protein [27]. HMI9T medium (standard media for T. brucei cell culture) contains high concentrations of folate (~9 μM) and thymidine (~160 μM) principally from IMDM and 10% Serum Plus components. A medium based on HMI9T, only lacking Serum Plus, folate and thymidine was prepared in-house, named trypanosome base media (TBM; the residual folate is provided by the serum component). A comparison of these media is described in S2 Table. WT T. brucei cells grow normally in TBM and the rate of growth is similar to HMI9T in TBM with no supplementation, supplementation with 9 μM folate, 160 μM thymidine or supplementation with both folate and thymidine (7–8 h doubling time).
EC50 of antifolates against T. brucei were determined in 96-well microtitre plates. Serial doubling dilutions of antifolate drugs (10–50 mM stocks prepared in DMSO) were prepared in 100 μl of the appropriate medium and trypanosomes (resuspended in the same medium) added in 100 μl to give a final concentration of 2.5 × 10^3 cells ml^-1. All wells, including controls, contained a final volume of 0.5% DMSO. Cultures were incubated for 72 h at 37°C / 5% CO2 before cell density was determined using a resazurin-based assay. EC50 values were calculated using GraFit v 5.0.13 (Erithacus Software) with a 3-parameter non-linear regression from triplicate readings. Antifolates were tested against parasites cultured in TBM; this allowed for the addition of thymidine (160 μM) and folate (9 μM) respectively.

[2] = target: T1, T. brucei DHFR (Tsf-TbDHFR-TS) (Trypanosoma brucei brucei, UniProt Q27783); experiment: Inhibition of DHFR activity of recombinant Tsf-TbDHFR-TS (spectrophotometric, 340 nm); conditions: for Modality of inhibition of DHFR: with respect to DHF
T1 sequence (Q27783 whole entry): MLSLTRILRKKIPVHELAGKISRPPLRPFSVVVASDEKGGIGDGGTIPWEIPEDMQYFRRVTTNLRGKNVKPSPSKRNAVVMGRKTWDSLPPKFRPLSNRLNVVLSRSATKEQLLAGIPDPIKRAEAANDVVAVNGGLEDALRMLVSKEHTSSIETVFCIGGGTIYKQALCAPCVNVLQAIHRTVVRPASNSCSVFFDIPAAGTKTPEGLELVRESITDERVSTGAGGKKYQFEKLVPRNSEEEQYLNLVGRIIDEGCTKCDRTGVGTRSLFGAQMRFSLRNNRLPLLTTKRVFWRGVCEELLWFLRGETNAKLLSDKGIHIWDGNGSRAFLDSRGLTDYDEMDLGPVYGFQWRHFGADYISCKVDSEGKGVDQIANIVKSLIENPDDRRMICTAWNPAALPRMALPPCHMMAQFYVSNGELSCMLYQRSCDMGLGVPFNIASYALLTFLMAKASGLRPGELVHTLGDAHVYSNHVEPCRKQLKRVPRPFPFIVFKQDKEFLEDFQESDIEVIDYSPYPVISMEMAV
Description: DHFR activity was determined spectrophotometrically at 340 nm [18]. DHFR (5 nM) was pre-incubated with 100 μM NADPH (Medford) in assay buffer (50 mM HEPES, pH 7.4, containing 100 mM KCl) for 1 min at 25°C (1 ml final assay volume), before the addition of 100 μM DHF (Sigma Aldrich). […] The Km^app values for DHFR substrates were determined by varying the concentration of one substrate in the presence of a fixed saturating concentration of the other. IC50 values were determined using 8-point doubling dilutions of inhibitor under the above standard assay conditions.
Results were analysed by non-linear regression using GraFit v 5.0.13 (Erithacus Software). Km^app values were determined using the Michaelis-Menten equation. IC50 values were determined using eq 1 and Ki values calculated using the Cheng-Prusoff eq 2 [23].

[3] = target: T1, T. brucei DHFR (Tsf-TbDHFR-TS); experiment: Kinetic analysis of DHFR activity (substrates); format: biochemical; set-up: The open reading frame of DHFR-TS was amplified by PCR from T. brucei gDNA using specific oligonucleotides; made in house; host or cells: thyA- E. coli derived from BL21 Star (DE3); conditions: for Activity as substrate for T. brucei DHFR: <17,000-fold (folate) and <2,300-fold (pterins) compared to DHF as substrate
[4] = target: T2, T. brucei TS (Tsf-TbDHFR-TS) (Trypanosoma brucei brucei, UniProt Q27783); experiment: Kinetic analysis of TS activity (substrates); format: biochemical; conditions: clarified E. coli lysate, radiometric assay; read-out: CH2THF Km^app
T2 construct: The open reading frame of DHFR-TS was amplified by PCR from T. brucei gDNA using specific oligonucleotides; made in house; host or cells: thyA- E. coli derived from BL21 Star (DE3); unpurified clarified lysate
Description: The initial characterisation of TS was also carried out using a spectrophotometric assay. Owing to the pronounced instability of the recombinant protein, clarified ThyA^- E. coli lysates were used for characterisation, where the concentration of TS was calculated based on DHFR activity. […] . Enzymatic reactions were initiated by the addition of CH2THF (200 μM, Shircks Laboratories) and initial rates of CH2THF oxidation to DHF monitored by the increase in absorbance at 340 nm (ε = 6,200 M^-1 cm^-1). This method is not suitable for determination of the Km^app for CH2THF and a radiometric method was used instead. This method measures the release of tritiated water from 5-[^3H]-dUMP (American Radiochemicals, 14.3 Ci mmol^-1). Assays (40 μl final volume) contained 200 nM TS and varying amounts of CH2THF (37.5 μM– 4.8 mM) in DHFR-assay buffer. Reactions were initiated by adding 200 μM [^3H]-dUMP (5.55 × 10^5 dpm nmol^-1) and stopped after 10 min by the addition of 20 μl trichloroacetic acid. Residual 5-[^3H]-dUMP was removed by the addition of 200 μl of 10% (w/v) activated charcoal (Sigma). Aliquots (100 μl) of the supernatants were added to 2 ml of scintillation fluid (Pico-Fluor 40™, Packard Bioscience) and radioactivity determined using a Beckmann LS 6500 Scintillation Counter. […] Protein concentrations were determined using the BioRad protein assay based on the method of Bradford. […]
Target sequence in this assay (Q27783 whole entry): as above
Target sequence in this assay (P0A6P1 whole entry partner): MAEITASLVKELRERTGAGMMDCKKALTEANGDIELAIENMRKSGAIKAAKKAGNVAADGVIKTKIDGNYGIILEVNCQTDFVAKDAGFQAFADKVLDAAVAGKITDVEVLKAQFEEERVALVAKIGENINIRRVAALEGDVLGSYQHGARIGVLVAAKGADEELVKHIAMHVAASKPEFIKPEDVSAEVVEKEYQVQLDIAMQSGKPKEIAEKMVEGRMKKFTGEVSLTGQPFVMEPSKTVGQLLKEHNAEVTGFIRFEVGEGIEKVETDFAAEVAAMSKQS

[5] = target: T2, T. brucei TS (Tsf-TbDHFR-TS); experiment: Inhibition of TS activity of Tsf-TbDHFR-TS in clarified thyA- E. coli lysate; format: biochemical; conditions: for Ki: TS Ki, T. brucei; for Ki / TS Ki, T. brucei: 100 μM CH2THF, 200 μM dUMP, 200 nM Tsf-TbDHFR-TS, Inactive * = no inhibition at 25 μM, ** = no inhibition at 100 μM
Description: (§1) The initial characterisation of TS was also carried out using a spectrophotometric assay. […] Enzymatic reactions were initiated by the addition of CH2THF (200 μM, Shircks Laboratories) and initial rates of CH2THF oxidation to DHF monitored by the increase in absorbance at 340 nm (ε = 6,200 M^-1 cm^-1). […] Residual 5-[^3H]-dUMP was removed by the addition of 200 μl of 10% (w/v) activated charcoal (Sigma). Aliquots (100 μl) of the supernatants were added to 2 ml of scintillation fluid (Pico-Fluor 40™, Packard Bioscience) and radioactivity determined using a Beckmann LS 6500 Scintillation Counter. To determine TS activity in clarified T. brucei lysates the incubation time was increased to 30 min and the assay volume was increased to ~200 μl. […] For stability experiments all lysates were desalted using 0.5 ml Zeba Spin Desalting Columns (7K MWCO). Protein concentrations were determined using the BioRad protein assay based on the method of Bradford. Inhibitors (8-point doubling dilutions) were assayed using the radiometric method in the presence of 100 μM CH2THF, 200 μM dUMP and 200 nM Tsf-TbDHFR-TS.
Target sequence in this assay (Q27783 whole entry): as the sequence (Q27783 whole entry) above
Target sequence in this assay (P0A6P1 whole entry, further chain): as the sequence (P0A6P1 whole entry partner) above

Human TS = conditions: cited from earlier work
Human DHFR = conditions: cited from earlier work
[6] = target: T2, T. brucei TS (Tsf-TbDHFR-TS); experiment: Stabilisation of recombinant T. brucei TS activity in desalted, diluted lysate; format: biochemical
Description: as §1
Target sequence in this assay (Q27783 whole entry): as the sequence (Q27783 whole entry) above
Target sequence in this assay (P0A6P1 whole entry partner): as the sequence (P0A6P1 whole entry partner) above

[7] = TBM (folate and thymidine deficient), read-out: EC50, No addition
[8] = TBM + folate (9 μM), read-out: EC50, + Folate
[9] = TBM + thymidine (160 μM) + folate (9 μM), read-out: EC50, + Thymidine + Folate
[10] = TBM + thymidine (160 μM), read-out: EC50, + Thymidine
[11] = DHFR Ki (competitive inhibition, global fit, Fig 5), varying DHF, fixed amounts of inhibitor, non-linear regression
[12] = DHFR Ki, T. brucei, recombinant TbDHFR-TS, from IC50 (Cheng-Prusoff) or Morrison equation for tight binders, Inactive ** = no inhibition at 100 μM

Compound: COc1cc(Cc2cnc(N)nc2N)cc(OC)c1OC [Trimethoprim, trimethoprim]
- EC50 [1, 7]: 48.8 ± 3.7 µM
- EC50 [1, 8]: 170 ± 28 µM
- EC50 [1, 9]: 145 ± 22 µM
- EC50 [1, 10]: 59.8 ± 8.6 µM
- Ki [2, 11]: 0.0114 ± 0.0012 µM
- Ki [2, 12]: 0.0176 ± 0.0015 µM
- Modality of inhibition of DHFR [2]: competitive inhibitors

Compound: Nc1nc2ncc([C@H](O)[C@H](O)CO)nc2c(=O)[nH]1 [neopterin]
- Activity as substrate for T. brucei DHFR [3]: inactive

Compound: Nc1nc(=O)c2c([nH]1)NCC(CNc1ccc(C(=O)N[C@@H](CCC(=O)O)C(=O)O)cc1)=N2 [DHF, dihydrofolate]
- Km ([3]; Tsf-TbDHFR-TS, purified, 50 mM HEPES pH 7.4, 100 mM KCl, read-out: DHF Km^app): 4.1 ± 0.6 µM
- Km ([3]; Tsf-cleaved TbDHFR-TS, read-out: DHF Km^app): 4.2 ± 0.5 µM
- Km ([3]; purified enzyme, read-out: DHFR Km^app (Fig 4 legend)): 4.1 ± 0.6 µM

Compound: C[C@H](O)C(=O)C1=Nc2c(nc(N)[nH]c2=O)NC1 [sepiapterin]
- Activity as substrate for T. brucei DHFR [3]: inactive

Compound: NC(=O)C1=CN([C@@H]2O[C@H](COP(=O)(O)OP(=O)(O)OC[C@H]3O[C@@H](n4cnc5c(N)ncnc54)[C@H](OP(=O)(O)O)[C@@H]3O)[C@@H](O)[C@H]2O)C=CC1 [NADPH]
- Km ([3]; Tsf-TbDHFR-TS, purified, read-out: NADPH Km^app): 1.7 ± 0.2 µM

Compound: CN(Cc1cnc2nc(N)nc(N)c2n1)c1ccc(C(=O)N[C@@H](CCC(=O)O)C(=O)O)cc1 [Methotrexate, methotrexate]
- EC50 [1, 7]: 0.012 ± 0.001 µM
- EC50 [1, 8]: 1.31 ± 0.13 µM
- EC50 [1, 9]: 8.16 ± 2.78 µM
- EC50 [1, 10]: 0.12 ± 0.03 µM
- Modality of inhibition of DHFR [2]: tight-binding inhibitors

Compound: Nc1nc2c(c(=O)[nH]1)N1CN(c3ccc(C(=O)N[C@@H](CCC(=O)O)C(=O)O)cc3)CC1CN2 (stereo partly drawn) [CH2THF, N^5, N^10-methylenetetrahydrofolate]
- Km [4]: 470 ± 50 µM

Compound: O=c1[nH]c(=O)n([C@H]2C[C@H](O)[C@@H](COP(=O)(O)O)O2)cc1F [FdUMP, 5-fluorodeoxyuridine monophosphate]
- Ki [5]: 0.014 µM and 0.0138 µM
- Modality of inhibition of TS ([5]; dUMP-competitive): tight-binding inhibition
- DHFR Ki, T. brucei ([2]; recombinant TbDHFR-TS, from IC50 (Cheng-Prusoff) or Morrison equation for tight binders, Inactive ** = no inhibition at 100 μM): Inactive ^**
- Ki (Human TS; ref Dolnick and Cheng [32]): 0.0017 µM

Compound: Nc1nc(=O)c2nc(CNc3ccc(C(=O)N[C@@H](CCC(=O)O)C(=O)O)cc3)cnc2[nH]1 [Folic acid]
- Activity as substrate for T. brucei DHFR [3]: inactive

Compound: COc1cc(NCc2ccc3nc(N)nc(N)c3c2C)cc(OC)c1OC [Trimetrexate, trimetrexate]
- TS Ki, T. brucei [5]: Inactive ^*
- EC50 [1, 7]: 0.32 ± 0.02 µM
- EC50 [1, 8]: 1.23 ± 0.06 µM
- EC50 [1, 9]: 4.09 ± 0.35 µM
- EC50 [1, 10]: 2.82 ± 0.36 µM
- Ki [2, 12]: 0.0006 µM and 0.000597 µM
- Modality of inhibition of DHFR [2]: tight-binding inhibitors

Compound: OCCS [2-mercaptoethanol]
- EC50 ([5]; reducing agent at higher concentrations, clarified lysate): ~100000 µM

Compound: C[C@H](O)[C@H](O)C1=Nc2c(nc(N)[nH]c2=O)NC1 [dihydrobiopterin]
- Activity as substrate for T. brucei DHFR [3]: inactive

Compound: Cc1ccc2nc(N)[nH]c(=O)c2c1Sc1ccncc1 [Nolatrexed, nolatrexed]
- DHFR Ki, Human (Human DHFR; ref Webber et al. [10]): Inactive^h
- Ki [5]: 0.039 µM and 0.0394 µM
- EC50 ([1]; read-out: EC50, + Folate): 21.8 ± 2 µM
- EC50 ([1]; read-out: EC50, + Thymidine): 32.7 ± 4.7 µM
- EC50 ([1]; read-out: EC50, + Thymidine + Folate): 39.6 ± 7.2 µM
- EC50 ([1]; read-out: EC50, No addition): 33.8 ± 3.7 µM
- Ki [2, 12]: 0.348 ± 0.03 µM

Compound: Cc1nc2ccc(CN(C)c3ccc(C(=O)N[C@@H](CCC(=O)O)C(=O)O)s3)cc2c(=O)[nH]1 [Raltitrexed, raltitrexed]
- Ki (Human DHFR; ref Jackman et al. [12]): 0.093 µM
- Ki [5]: 0.215 ± 0.018 µM
- EC50 [1, 7]: 0.038 ± 0.001 µM
- EC50 [1, 8]: 64.8 ± 4.3 µM
- EC50 [1, 9]: > 250 µM
- EC50 [1, 10]: > 250 µM
- Ki [2, 11]: 0.0704 ± 0.0072 µM
- Ki [2, 12]: 0.0931 ± 0.0079 µM
- Modality of inhibition of DHFR [2]: competitive inhibitors
- Ki (Human TS; ref Jackman et al. [12]): 0.06 µM

Compound: O=c1ccn([C@H]2C[C@H](O)[C@@H](COP(=O)(O)O)O2)c(=O)[nH]1 [dUMP, deoxyuridine monophosphate]
- Increase in stability of TS activity ([6]; 200 μM dUMP vs no dUMP): 700 fold
- EC50 ([6]; absence of CH2THF, diluted lysate incubated 10 min, read-out: Half maximal concentration required to stabilise TS activity): 12.6 ± 2.5 µM

Compound: Nc1nc2[nH]cc(CCc3ccc(C(=O)N[C@@H](CCC(=O)O)C(=O)O)cc3)c2c(=O)[nH]1 [Pemetrexed, pemetrexed]
- Ki (Human DHFR; ref Shih et al. [11]): 0.007 µM
- Ki [5]: 20.5 µM
- EC50 [1, 7]: 0.02 ± 0.001 µM
- EC50 [1, 8]: 12.9 ± 1.1 µM
- EC50 [1, 9]: > 250 µM
- EC50 [1, 10]: > 250 µM
- Ki [2, 12]: 0.29 ± 0.02 µM

Compound: CCc1nc(N)nc(N)c1-c1ccc(Cl)cc1 [Pyrimethamine, pyrimethamine]
- TS Ki, T. brucei [5]: Inactive ^**
- EC50 [1, 7]: 2.26 ± 0.32 µM
- EC50 [1, 8]: 6.32 ± 0.71 µM
- EC50 [1, 9]: 6.87 ± 0.33 µM
- EC50 [1, 10]: 2.01 ± 0.34 µM
- Modality of inhibition of DHFR [2]: competitive inhibitors

Compound: biopterin
- Activity as substrate for T. brucei DHFR [3]: inactive
